# Laboratory results as given in US9409907B2, “Inhibitor compounds” (Cancer Research Technology Limited, priority 2012, dated 2016).
# Biological target: full length MPS1 (Homo sapiens (Human), UniProt P33981)
# Assay: Measurement of inhibition of MPS1 kinase (Caliper EZ reader mobility-shift enzyme assay)
# Type: biochemical
# Settings: full length MPS1 12.5 nM or 3 nM, H236 peptide 5 μM, ATP 10 μM, 60 min at room temperature
# Protocol: Measurement of Inhibition of MPS1 Kinase
# The reaction was carried out for 60 min at room temperature and stopped by the addition of buffer (10 μl) containing 20 mM EDTA, 0.05% (v/v) Brij-35, in 0.1M HEPES-buffered saline (Free acid, Sigma, UK). The plate was read on a Caliper EZ reader II (Caliper Life Sciences).
# The % inhibition of the compounds is calculated relative to the means of selected control wells.
# full length MPS1, sequence (P33981 whole entry): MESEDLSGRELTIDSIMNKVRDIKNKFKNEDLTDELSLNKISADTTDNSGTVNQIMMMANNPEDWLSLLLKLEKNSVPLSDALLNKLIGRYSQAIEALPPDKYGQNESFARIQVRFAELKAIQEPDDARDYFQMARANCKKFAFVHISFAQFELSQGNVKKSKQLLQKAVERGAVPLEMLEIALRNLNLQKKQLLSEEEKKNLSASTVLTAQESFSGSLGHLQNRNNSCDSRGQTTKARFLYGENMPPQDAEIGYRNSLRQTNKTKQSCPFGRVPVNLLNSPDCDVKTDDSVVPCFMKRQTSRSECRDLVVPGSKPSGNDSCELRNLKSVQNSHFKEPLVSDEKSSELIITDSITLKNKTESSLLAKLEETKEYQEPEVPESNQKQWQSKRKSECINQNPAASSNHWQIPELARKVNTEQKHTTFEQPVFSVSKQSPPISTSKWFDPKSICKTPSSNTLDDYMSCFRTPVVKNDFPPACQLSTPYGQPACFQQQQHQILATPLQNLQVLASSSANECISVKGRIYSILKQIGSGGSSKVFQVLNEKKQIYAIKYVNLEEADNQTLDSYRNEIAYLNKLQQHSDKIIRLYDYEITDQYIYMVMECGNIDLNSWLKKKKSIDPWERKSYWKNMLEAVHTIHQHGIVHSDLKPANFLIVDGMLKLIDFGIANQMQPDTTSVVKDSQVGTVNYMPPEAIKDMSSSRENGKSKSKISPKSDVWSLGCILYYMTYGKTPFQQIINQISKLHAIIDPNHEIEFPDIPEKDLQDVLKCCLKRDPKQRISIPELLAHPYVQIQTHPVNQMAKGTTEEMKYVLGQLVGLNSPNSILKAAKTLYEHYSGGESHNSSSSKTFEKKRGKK
row,Compound,IC50
1,"COc1cc(-c2cnn(C)c2)ccc1Nc1ncc2ccnc(N3CC(F)(F)C3)c2n1 [Example 63, 8-(3,3-difluoroazetidin-1-yl)-N-(2-methoxy-4-(1-methyl-1H-pyrazol-4-yl)phenyl)pyrido[3,4-d]pyrimidin-2-amine]",25 nM
2,"COc1cc(-c2cnn(C)c2)ccc1Nc1ncc2ccnc(N3CCC(F)(F)C3)c2n1 [Example 57, 8-(3,3-difluoropyrroldin-1-yl)-N-(2-methoxy-4-(1-methyl-1H-pyrazol-4-yl)phenyl)pyrido[3,4-d]pyrimidin-2-amine]",12 nM
3,"COc1cc(-c2cnn(C)c2)ccc1Nc1ncc2ccnc(Cl)c2n1 [Example 94, 8-chloro-N-(2-methoxy-4-(1-methyl-1H-pyrazol-4-yl)phenyl)pyrido[3,4-d]pyrimidin-2-amine]",164 nM
4,"COc1cc(-c2cnn(C)c2)ccc1Nc1ncc2ccnc(N3CCN(S(C)(=O)=O)CC3)c2n1 [Example 139, N-(2-Methoxy-4-(1-methyl-1H-pyrazol-4-yl)phenyl)-8-(4-(methylsulfonyl)piperazin-1-yl)pyrido[3,4-d]pyrimidin-2-amine]",6 nM
5,"COc1cc(-c2c(C)noc2C)ccc1Nc1cc2c(-c3cnn(C)c3)cccc2cn1 [Example 18, N-(4-(3,5-dimethylisoxazol-4-yl)-2-methoxyphenyl)-5-(1-methyl-1H-pyrazol-4-yl)isoquinolin-3-amine]",95 nM
6,"COc1nc(S(C)(=O)=O)ccc1Nc1ncc2ccnc(NCC(C)(C)C)c2n1 [Example 46, N2-(2-methoxy-6-(methylsulfonyl)pyridin-3-yl)-N8-neopentylpyrido[3,4-d]pyrimidine-2,8-diamine]",17 nM
7,"COc1cc(-c2cnn(C)c2)ccc1Nc1ncc2ccnc(NC3CCOC3)c2n1 (stereo not shown) [Example 78, N2-(2-methoxy-4-(1-methyl-1H-pyrazol-4-yl)phenyl)-N8-(tetrahydrofuran-3-yl)pyrido[3,4-d]pyrimidine-2,8-diamine]",8 nM
8,COCCn1c(-c2ccc(Nc3ncc4cc(C)nc(NCC(C)(C)C)c4n3)c(OC)c2)cnc1C [Example 181],19.4 nM
9,"COc1cc(-c2cnc(C)n2C)ccc1Nc1cc2c(-c3cnn(C)c3)nccc2cn1 [Example 104, N-(4-(1,2-dimethyl-1H-imidazol-5-yl)-2-methoxyphenyl)-5-(1-methyl-1H-pyrazol-4-yl)-2,6-naphthyridin-3-amine]",7 nM
10,"COc1cc(-c2cnn(C)c2C)ccc1Nc1ncc2ccnc(NCC3(C)COC3)c2n1 [Example 146, N^2-(4-(1,5-dimethyl-1H-pyrazol-4-yl)-2-methoxyphenyl)-N^8-((3-methyloxetan-3-yl)methyl)pyrido[3,4-d]pyrimidine-2,8-diamine]",4 nM
11,"COc1nc(N2CCOCC2)ccc1Nc1ncc2ccnc(NCC(C)(C)C)c2n1 [Example 45, N^2-(2-methoxy-6-morpholinopyridin-3-yl)-N8-neopentylpyrido[3,4-d]pyrimidine-2,8-diamine]",13 nM
12,COC(C)(C)CNc1nc(C)cc2cnc(Nc3ccc(-c4cnn(C)c4)cc3OC(F)F)nc12 [Example 197],34 nM
13,"COc1cc(N2CCOCC2)ccc1Nc1ncc2ccnc(NCC(C)(C)C)c2n1 [Example 52, N2-(2-methoxy-4-morpholinophenyl)-N8-neopentyprido[3,4-d]pyrimidine-2,8-diamine]",8 nM
14,"COc1cc(-c2cnn(C)c2)ccc1Nc1ncc2ccnc(N3CCCC(CO)C3)c2n1 (stereo not shown) [Example 134, (1-(2-(2-Methoxy-4-(1-methyl-1H-pyrazol-4-yl)phenylamino)pyrido[3,4-d]pyrimidin-8-yl)piperidin-3-yl)methanol]",4 nM
15,"COc1cc(-c2cnn(C)c2)ccc1Nc1ncc2ccnc(NCC(C)(F)F)c2n1 [Example 84, N8-(2,2-difluoropropyl)-N2-(2-methoxy-4-(1-methyl-1H-pyrazol-4-yl)phenyl)pyrido[3,4-d]pyrimidine-2,8-diamine]",14 nM
16,"COCCn1cc(-c2cccc3cnc(Nc4ccc(C(=O)N5CC(OC)C5)cc4OC)cc23)cn1 [Example 2, (3-methoxy-4-((5-(1-(2-methoxyethyl)-1H-pyrazol-4-yl)isoquinolin-3-yl)amino)phenyl)(3-methoxyazetidin-1-yl)methanone]",14 nM
17,"COc1cc(-c2cnc(C)n2C)ccc1Nc1ncc2cc(C)nc(NCC(C)(C)C)c2n1 [Example 177, N2-(4-(1,2-dimethyl-1H-imidazol-5-yl)-2-methoxyphenyl)-6-methyl-N8-neopentylpyrido[3,4-d]pyrimidine-2,8-diamine]",5 nM
18,"COc1cc(-c2cnn(C)c2)ccc1Nc1ncc2ccnc(-c3ccncc3)c2n1 [Example 209, N-(2-Methoxy-4-(1-methyl-1H-pyrazol-4-yl)phenyl)-8-(pyridin-4-yl)pyrido[3,4-d]pyrimidin-2-amine pyridin-4-ylboronate]",7 nM
19,"COc1cc(-c2cnn(C)c2)ccc1Nc1ncc2ccnc(N3CCC4(COC4)C3)c2n1 [Example 88, N-(2-methoxy-4-(1-methyl-1H-pyrazol-4-yl)phenyl)-8-(2-oxa-6-azaspiro[3.4]oxtan-6-yl)pyrido[3,4-d]pyrimidin-2-amine]",3 nM

row,Compound,IC50
1,"COc1cc(C(=O)N2CC(OC)C2)ccc1Nc1cc2c(-c3cn(C)nc3C)cccc2cn1 [Example 8, (4-((5-(1,3-dimethyl-1H-pyrazol-4-yl)isoquinolin-3-yl)amino)-3-methoxyphenyl)(3-methoxyazetidin-1-yl)methanone]",27 nM
2,"COc1cc(-c2cnn(C)c2)ccc1Nc1ncc2ccnc(NC(C)C3CC3)c2n1 (stereo not shown) [Example 75, N8-(1-cyclopropylethyl)-N2-(2-methoxy-4-(1-methyl-1H-pyrazol-4-yl)phenyl)pyrido[3,4-d]pyrimidine-2,8-diamine]",4 nM
3,COc1cc(-c2cnn(C)c2CO)ccc1Nc1ncc2ccnc(NCC(C)(C)OC)c2n1 [Example 184],2 nM
4,COc1cc(C(=O)N2CC(OC)C2)ccc1Nc1cc2c(-c3cnn(C)c3)cccc2cn1 [Example 24],20 nM
5,"COc1cc(-c2cnn(C)c2C)ccc1Nc1ncc2ccnc(NCC3(C)CCOC3)c2n1 (stereo not shown) [Example 148, N^2-(4-(1,5-dimethyl-1H-pyrazol-4-yl)-2-methoxyphenyl)-N^8-((3-methyltetrahydrofuran-3-yl)methyl)pyrido[3,4-d]pyrimidine-2,8-diamine]",3 nM
6,"Cc1cc(-c2cnn(C)c2)ccc1Nc1ncc2ccnc(NCC3CC3)c2n1 [Example 99, N8-(cyclopropylmethyl)-N2-(2-methyl-4-(1-methyl-1H-pyrazol-4-yl)phenyl)pyrido[3,4-d]pyrimidine-2,8-diamine]",8 nM
7,"COCC(CO)Nc1nccc2cnc(Nc3ccc(-c4cnn(C)c4)cc3OC)nc12 (stereo not shown) [Example 131, 3-Methoxy-2-(2-(2-methoxy-4-(1-methyl-1H-pyrazol-4-yl)phenylamino)pyrido[3,4-d]pyrimidin-8-ylamino)propan-1-ol]",4 nM
8,"COc1cc(C(=O)N2CC(OC)C2)ccc1Nc1cc2c(-c3c(C)noc3C)cccc2cn1 [Example 5, (4-((5-(3,5-dimethylisoxazol-4-yl)isoquinolin-3-yl)amino)-3-methoxyphenyl)(3-methoxyazetidin-1-yl)methanone]",261 nM
9,"COc1cc(-c2cnn(C)c2)ccc1Nc1ncc2ccnc(NCC3(C)CCOC3)c2n1 (racemic) [Example 117, N^2-(2-methoxy-4-(1-methyl-1H-pyrazol-4-yl)phenyl)-N^8-((3-methyltetrahydrofuran-3-yl)methyl)pyrido[3,4-d]pyrimidine-2,8-diamine]",3 nM
10,"COc1cc(-c2cnn(C)c2)ccc1Nc1ncc2ccnc(N3CC4(CCOC4)C3)c2n1 [Example 120, N-(2-methoxy-4-(1-methyl-1H-pyrazol-4-yl)phenyl)-8-(6-oxa-2-azaspiro[3.4]octan-2-yl)pyrido[3,4-d]pyrimidin-2-amine]",3 nM
11,Clc1ccc(Nc2ncc3ccnc(N4CCC5(COC5)C4)c3n2)c(Cl)c1 [Example 207],94 nM
12,"COc1cc(-c2cnn(C)c2)ccc1Nc1ncc2ccnc(-c3cnn(C(C)C)c3)c2n1 [Example 92, 8-(1-isopropyl-1H-pyrazol-4-yl)-N-(2-methoxy-4-(1-methyl-1H-pyrazol-4-yl)phenyl)pyrido[3,4-d]pyrimidin-2-amine]",14 nM
13,"CCc1cc(-c2cnn(C)c2)ccc1Nc1ncc2ccnc(NCC(C)(C)C)c2n1 [Example 168, N2-(2-ethyl-4-(1-methyl-1H-pyrazol-4-yl)phenyl)-N8-neopentylpyrido[3,4-d]pyrimidine-2,8-diamine]",27 nM
14,"COc1cc(C(=O)N2CC(OC)C2)ccc1Nc1cc2c(-c3cnn(C4CCNCC4)c3)cccc2cn1 [Example 20, (3-Methoxy-4-((5-(1-(piperidin-4-yl)-1H-pyrazol-4-yl)isoquinolin-3-yl)amino)phenyl)(3-methoxyazetidin-1-yl)methanone]",20 nM
15,COc1cc(-c2cnn(C)c2CO)ccc1Nc1ncc2cc(C)nc(NCC(C)(C)OC)c2n1 [Example 198],9 nM
16,"COc1cc(-c2cnn(C)c2)ccc1Nc1ncc2ccnc(N3CCOCC3)c2n1 [Example 61, N-(2-methoxy-4-(1-methyl-1H-pyrazol-4-yl)phenyl)-8-morpholinopyrido[3,4-d]pyrimidin-2-amine]",3 nM
17,"COc1cc(-c2cnn(C)c2)ccc1Nc1ncc2ccnc(C3=CCOCC3)c2n1 [Example 144, 8-(3,6-Dihydro-2H-pyran-4-yl)-N-(2-methoxy-4-(1-methyl-1H-pyrazol-4-yl)phenyl)pyrido[3,4-d]pyrimidin-2-amine]",5 nM
18,"COc1cc(-c2cnc(C)n2C)ccc1Nc1ncc2ccnc(NCC(C)(C)C)c2n1 [Example 50, N2-(4-(1,2-dimethyl-1H-imidazol-5-yl)-2-methoxyphenyl)-N8-neopentylpyrido[3,4-d]pyrimidine-2,8-diamine]",7 nM
